Like-named read-outs stand apart in the source and are kept apart here.
Assays:
[1] = system: HT-29 colon adenocarcinoma human cells; conditions: cited from earlier work
P. falciparum 3D7 strain = test: SYBR Green I antimalarial activity, P. falciparum 3D7; format: cell-based, Plasmodium falciparum; conditions: read-out: IC50 P. faldparum 3D7
Method: (§1) In an embodiment, hierridin B and hierridin C were tested for in vitro activity towards the P. falciparum strains, in particular P. falciparum 3D7 strain and the multidrug-resistant Dd2 strain to verify whether the chlorine atom featured in hierridin C affects the activity of the compound, in particular the antimalarial activity.
In an embodiment, the laboratory-adapted P. falciparum 3D7 and Dd2 strains were cultivated on human erythrocytes suspended in RPMI 1640 medium supplemented with 25 mM HEPES, 6.8 mM hypoxanthine and 10% AlbuMAX II (Life Technologies, Carlsbad, Calif., USA), at pH 7.2. […] Staging and parasitaemia were determined by light microscopy of Giemsa-stained thin blood smears.
(§2) In an embodiment, the antimalarial activities of hierridin B and hierridin C were determined using the SYBR Green I (Life Technologies). Early ring stage parasites were tested in triplicate in a 96-well plate and incubated with drugs for 48 h (37° C., 5% CO2), parasite growth was assessed with SYBR Green I. Each compound was tested in a concentration ranging from 10-0.0097 μM (0.2% DMSO). Fluorescence intensity was measured with a multi-mode microplate reader (Triad, Dynex, Chantilly, Va., USA) with excitation and emission wavelengths of 485 nm and 535 nm, respectively, and analyzed by nonlinear regression using GraphPad Prism 5 (GraphPad Software, La Jolla, Calif., USA).

[2] = system: P. falciparum multidrug-resistant Dd2 strain; test: microbe, parasite or virus in culture; format: cell-based, Plasmodium falciparum
Method: as §1
In an embodiment, the laboratory-adapted P. falciparum 3D7 and Dd2 strains were cultivated on human erythrocytes suspended in RPMI 1640 medium supplemented with 25 mM HEPES, 6.8 mM hypoxanthine and 10% AlbuMAX II (Life Technologies, Carlsbad, Calif., USA), at pH 7.2. Cultures were maintained at 37° C. under an atmosphere of 5% O2, 3-5% CO2 and N2, and synchronized by sorbitol treatment prior to the assays. Staging and parasitaemia were determined by light microscopy of Giemsa-stained thin blood smears.
as §2

[3] = system: colon adenocarcinoma HT-29; test: Cytotoxicity, cell lines exposed to hierridin C; format: cell-based, human; conditions: HT-29, up to 30 μg mL−1 (75.2 μM)
Method: (§3) In an embodiment, several cell lines were exposed to hierridin C, in particular to a concentration of hierridin C up to 30 μg mL^−1 (75.2 μM). The cell lines exposed to hierridin C, were in particular the cell lines of hepatocellular carcinoma HepG2, colon adenocarcinoma HT-29, neuroblastoma SH-SY5Y, breast carcinoma T47D, normal prostate cell line PNT2, breast adenocarcinoma, RKO colon carcinoma and MG-63 osteosarcoma.

[4] = system: hepatocellular carcinoma HepG2; test: Cytotoxicity, cell lines exposed to hierridin C; format: cell-based; conditions: HepG2, up to 30 μg mL−1 (75.2 μM)
Method: as §3

[5] = system: normal prostate cell line PNT2; test: Cytotoxicity, cell lines exposed to hierridin C; format: cell-based; conditions: PNT2, up to 30 μg mL−1 (75.2 μM)
Method: as §3

breast adenocarcinoma = test: Cytotoxicity, cell lines exposed to hierridin C; format: cell-based; conditions: up to 30 μg mL−1 (75.2 μM)
Method: as §3

RKO colon carcinoma = test: Cytotoxicity, cell lines exposed to hierridin C; format: cell-based; conditions: up to 30 μg mL−1 (75.2 μM)
Method: as §3

MG-63 osteosarcoma = test: Cytotoxicity, cell lines exposed to hierridin C; format: cell-based; conditions: MG-63, up to 30 μg mL−1 (75.2 μM)
Method: as §3

breast carcinoma T47D = test: Cytotoxicity, cell lines exposed to hierridin C; format: cell-based; conditions: up to 30 μg mL−1 (75.2 μM)
Method: as §3

neuroblastoma SH-SY5Y = test: Cytotoxicity, cell lines exposed to hierridin C; format: cell-based; conditions: up to 30 μg mL−1 (75.2 μM)
Method: as §3

| SMILES | cytotoxicity towards HT-29 [1] | IC50 (P. falciparum 3D7 strain; 3D7 strain (sensitive to chloroquine), 48 h incubation, SYBR Green I) [nM] | IC50 ([2]; Dd2 strain (resistant to chloroquine and mefloquine), 48 h incubation, SYBR Green I, read-out: IC50 P. faldparum Dd2) [nM] | IC50 (P. falciparum 3D7 strain; Plasmodium falciparum, 3D7, 48 h) [nM] | Resistance indices (RI) ([2]; Dd2 versus 3D7) | IC50 ([2]; Plasmodium falciparum, DD2, 48 h, read-out: IC50 P. faldparum Dd2) [nM] | IC50 ([2]; Plasmodium falciparum, DD2, read-out: IC50 in P. falciparum strains) [nM] | therapeutical index ([2]; relative to IC50 in P. falciparum strains) | cytotoxicity [3] | cytotoxicity [4] | cytotoxicity [5] | cytotoxicity (breast adenocarcinoma) | cytotoxicity (RKO colon carcinoma) | cytotoxicity (MG-63 osteosarcoma) | cytotoxicity (breast carcinoma T47D) | cytotoxicity (neuroblastoma SH-SY5Y) |
| --- | --- | --- | --- | --- | --- | --- | --- | --- | --- | --- | --- | --- | --- | --- | --- | --- |
| CCCCCCCCCCCCCCCc1cc(OC)cc(OC)c1O [Hierridin B, reference compound] | modest, selective cytotoxicity | 2090 ± 80 | 2250 ± 670 | – | – | – | – | – | – | – | – | – | – | – | – | – |
| CCCCCCCCCCCCCCCc1c(O)c(OC)cc(OC)c1Cl [Hierridin C, 3-chloro-4,6-dimethoxy-2-pentadecylphenol] | – | – | – | 1520 ± 50 | 0.93 | 2310 ± 110 | ~2000 | >= 50 | No cytotoxicity was observed | No cytotoxicity was observed | No cytotoxicity was observed | No cytotoxicity was observed | No cytotoxicity was observed | No cytotoxicity was observed | No cytotoxicity was observed | No cytotoxicity was observed |

Reference: patent publication US10287228B2, “Antimalarial agent, methods and uses thereof” (UNIVERSIDADE DO PORTO, priority 2015, dated 2019)
